Measurements reported in article PMC6352943, “Novel pyrazolo[3,4-d]pyrimidines: design, synthesis, anticancer activity, dual EGFR/ErbB2 receptor tyrosine kinases inhibitory activity, effects on cell cycle profile and caspase-3-mediated apoptosis” (Journal of Enzyme Inhibition and Medicinal Chemistry, 2019).

Tests used:
T-47D = experiment: NCI 60 cell line single dose screen (SRB); assay type: cell-based; settings: Homo sapiens, T47D; T-47D (breast cancer), single dose 10^−5 M, 48 h; read-out: Growth inhibition percentage
How it was run: (§1)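 Cells were plated and grown 24 h at 37 °C, 5% CO2 before compound addition from DMSO stock, then exposed 48 h. Adherent cells were fixed with cold TCA (final 10%) and suspension cells with 16% TCA. SRB-stained protein was read at 515 nm and percent growth was calculated against time-zero and untreated plates.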

HOP-62 = experiment: NCI 60 cell line single dose screen (SRB); assay type: cell-based; settings: Homo sapiens; HOP-62 (non-small cell lung cancer), single dose 10^−5 M, 48 h; read-out: Growth inhibition percentage
How it was run: as §1

NCI-H322M = experiment: NCI 60 cell line single dose screen (SRB); assay type: cell-based; settings: Homo sapiens; NCI-H322M (non-small cell lung cancer), single dose 10^−5 M, 48 h; read-out: Growth inhibition percentage
How it was run: as §1

NCI/ADR-RES = experiment: NCI 60 cell line single dose screen (SRB); assay type: cell-based; settings: Homo sapiens; NCI/ADR-RES (ovarian cancer), single dose 10^−5 M, 48 h; read-out: Growth inhibition percentage
How it was run: as §1

UACC-257 = experiment: NCI 60 cell line single dose screen (SRB); assay type: cell-based; settings: Homo sapiens; UACC-257 (melanoma), single dose 10^−5 M, 48 h; read-out: Growth inhibition percentage
How it was run: as §1

PC-3 = experiment: NCI 60 cell line single dose screen (SRB); assay type: cell-based; settings: Homo sapiens; PC-3 (prostate cancer), single dose 10^−5 M, 48 h; read-out: Growth inhibition percentage
How it was run: as §1

K-562 = experiment: NCI 60 cell line single dose screen (SRB); assay type: cell-based; settings: Homo sapiens, K562; K-562 (leukemia), single dose 10^−5 M, 48 h; read-out: Growth inhibition percentage
How it was run: as §1

HCT-15 = experiment: NCI 60 cell line single dose screen (SRB); assay type: cell-based; settings: Homo sapiens; HCT-15 (colon cancer), single dose 10^−5 M, 48 h; read-out: Growth inhibition percentage
How it was run: as §1

SN12C = experiment: NCI 60 cell line single dose screen (SRB); assay type: cell-based; settings: Homo sapiens; SN12C (renal cancer), single dose 10^−5 M, 48 h; read-out: Growth inhibition percentage
How it was run: as §1

OVCAR-5 = experiment: NCI 60 cell line single dose screen (SRB); assay type: cell-based; settings: Homo sapiens; OVCAR-5 (ovarian cancer), single dose 10^−5 M, 48 h; read-out: Growth inhibition percentage
How it was run: as §1

HCT-116 = experiment: NCI 60 cell line single dose screen (SRB); assay type: cell-based; settings: Homo sapiens; HCT-116 (colon cancer), single dose 10^−5 M, 48 h; read-out: Growth inhibition percentage
How it was run: as §1

MDA-MB-468 = experiment: NCI 60 cell line single dose screen (SRB); assay type: cell-based; settings: Homo sapiens; MDA-MB-468 (breast cancer), single dose 10^−5 M, 48 h; read-out: Growth inhibition percentage
How it was run: as §1

A498 = experiment: NCI 60 cell line single dose screen (SRB); assay type: cell-based; settings: Homo sapiens; A498 (renal cancer), single dose 10^−5 M, 48 h; read-out: Growth inhibition percentage
How it was run: as §1

KM12 = experiment: NCI 60 cell line single dose screen (SRB); assay type: cell-based; settings: Homo sapiens; KM12 (colon cancer), single dose 10^−5 M, 48 h; read-out: Growth inhibition percentage
How it was run: as §1

LOX IMVI = experiment: NCI 60 cell line single dose screen (SRB); assay type: cell-based; settings: Homo sapiens; LOX IMVI (melanoma), single dose 10^−5 M, 48 h; read-out: Growth inhibition percentage
How it was run: as §1

SNB-19 = experiment: NCI 60 cell line single dose screen (SRB); assay type: cell-based; settings: Homo sapiens; SNB-19 (CNS cancer), single dose 10^−5 M, 48 h; read-out: Growth inhibition percentage
How it was run: as §1

| SMILES | inhibition at 10 µM (T-47D) [%] | inhibition at 10 µM (HOP-62) [%] | inhibition at 10 µM (NCI-H322M) [%] | inhibition at 10 µM (NCI/ADR-RES) [%] | inhibition at 10 µM (UACC-257) [%] | inhibition at 10 µM (PC-3) [%] | inhibition at 10 µM (K-562) [%] | inhibition at 10 µM (HCT-15) [%] | inhibition at 10 µM (SN12C) [%] | inhibition at 10 µM (OVCAR-5) [%] | inhibition at 10 µM (HCT-116) [%] | inhibition at 10 µM (MDA-MB-468) [%] | inhibition at 10 µM (A498) [%] | inhibition at 10 µM (KM12) [%] | inhibition at 10 µM (LOX IMVI) [%] | inhibition at 10 µM (SNB-19) [%] | melting point [°C] |
| --- | --- | --- | --- | --- | --- | --- | --- | --- | --- | --- | --- | --- | --- | --- | --- | --- | --- |
| COc1cc(C=NNc2ncnc3c2c(C)nn3-c2ccc(F)cc2)ccc1O [Compound 10b, 1–(4-Fluorophenyl)-4–(2-(4-hydroxy-3-methoxybenzylidene)-hydrazinyl)-3-methyl-1H-pyrazolo[3,4-d]pyrimidine] | 20.1 | -6.39 | 14.4 | 4.3 | -14.1 | 27 | 24.2 | 18.9 | 14.9 | -30.9 | -4.51 | 8.05 | -3.34 | 28.1 | 19 | 6.67 | 221 to 223 |
| COc1cc(C=NNc2ncnc3c2c(C)nn3-c2ccc(F)cc2)cc(OC)c1OC [Compound 10c, 1–(4-Fluorophenyl)-3-methyl-4–(2-(3,4,5-trimethoxybenzylidene)-hydrazinyl)-1H-pyrazolo[3,4-d]pyrimidine] | 16.8 | 0.38 | 13.5 | -2.25 | 0.35 | 16.5 | -3.02 | -5.3 | 4.99 | -11.4 | 3.15 | -4.81 | 22 | 5.82 | 9.33 | -4.87 | 222 to 224 |
| Cc1nn(-c2ccc(F)cc2)c2ncnc(N3CCN(c4ccc(Cl)cc4)CC3)c12 [Compound 8c, 4–(4-(4-Chlorophenyl)piperazin-1-yl)-1–(4-fluorophenyl)-3-methyl-1H-pyrazolo[3,4-d]pyrimidine] | 10.3 | 4.05 | 3.9 | 6.62 | -0.44 | 11.3 | 11.4 | -8.49 | 13.3 | -2.91 | 1.69 | -3.83 | 9.66 | 2.24 | 4.93 | -4.77 | 167 to 169 |
| Cc1nn(-c2ccc(F)cc2)c2ncnc(N)c12 [Compound 4, 1–(4-Fluorophenyl)-3-methyl-1H-pyrazolo[3,4-d]pyrimidin-4-amine] | 4.18 | -8.24 | 7.26 | 0.66 | -14.2 | 1.03 | 1.98 | -4.62 | -1.4 | -4.61 | -8.66 | -13.2 | 0.68 | 3.5 | 1.75 | -9.19 | > 300 |
| Cc1nn(-c2ccc(F)cc2)c2ncnc(NN)c12 [Compound 9, 1–(4-Fluorophenyl)-4-hydrazinyl-3-methyl-1H-pyrazolo[3,4-d]-pyrimidine] | 32 | 4.27 | 23.9 | 3.79 | -3.21 | 13.8 | -3.06 | -5.82 | 8.3 | -7.64 | 3.99 | 18.5 | 1.48 | 3.79 | 13.3 | 11.3 | 208 to 210 |
| Cc1ccc(Nc2ncnc3c2c(C)nn3-c2ccc(F)cc2)cc1 [Compound 7c, 1–(4-Fluorophenyl)-3-methyl-N-(p-tolyl)-1H-pyrazolo[3,4-d]-pyrimidin-4-amine] | 14.6 | -14.5 | 10 | -6.46 | -7.62 | 7.23 | 0.26 | -0.49 | 48.4 | -0.5 | 3.2 | -15 | 5.97 | -1.11 | -0.99 | 7.21 | – |
| Cc1nn(-c2ccc(F)cc2)c2ncnc(N3CCOCC3)c12 [Compound 8a, 1–(4-Fluorophenyl)-3-methyl-4-morpholino-1H-pyrazolo[3,4-d]pyrimidine] | -22.2 | -13.6 | 5.51 | -6.35 | -5.9 | 5.06 | -3.68 | -2.04 | 1.12 | -3.95 | -7.69 | -7.8 | 4.93 | 0.04 | -2.33 | 5.14 | – |
| COc1ccc(N2CCN(c3ncnc4c3c(C)nn4-c3ccc(F)cc3)CC2)cc1 [Compound 8d, 1–(4-Fluorophenyl)-4–(4-(4-methoxyphenyl)piperazin-1-yl)-3-methyl-1H-pyrazolo[3,4-d]pyrimidine] | 3.85 | 1.51 | 1.5 | -3.7 | -6.35 | 12.5 | -4 | -5.55 | 6.31 | -7.96 | 7.42 | 0.37 | -0.85 | 0.4 | 0.28 | 2.02 | – |
